# Measurements as given in patent US6093805A, “Glycoside compounds and methods of synthesis” (The Regents of the University of Michigan, priority 1997, dated 2000).
# Structures can show the parent of a compound that is named as a salt.
# How the values were obtained:
# [1] = in vivo; cited from earlier work
# cancer cells = settings: cited from earlier work
# K-562 = assay: Tumor cell growth inhibition in K-562 cell culture (FIG. 8); format: cell-based; settings: K-562 culture fluid; 1/10 (0.4 mg/mL), 1/80 (0.03 mg/mL), 1/320 (0.007 mg/mL); plot FIG. 8
# [2] = system: cancer diseases of several phenotypes; settings: cited from earlier work
# [3] = system: cancer cells of representative phenotypes; settings: cited from earlier work
# [4] = Solubility in 14 mM phosphate buffered saline pH 7.4 at 23° C.; format: physicochemical; settings: aqueous buffer, 14 mM PBS pH 7.4, OD at 250 nm of supernatant, read-out: maximum solubility
# Procedure: The solubility of the two acetaminophen derivatives (Examples 9 and 10) in 14 mM phosphate buffered saline (PBS) pH 7.4 was determined and compared with the solubility of non-derivatized acetaminophen. It was determined that the two acetaminophen derivatives had much greater solubility than that of the non-derivatized acetaminophen. All work was performed at 23° C.
# Method: The solubility of both derivatives was determined by continual addition, with agitation, of the derivatives to a known amount of buffer. When a significant precipitate was observed, the respective solutions were centrifuged and the optical density at 250 nm of the resulting clear supernatant was determined. From the optical density of the supernatant, the concentration was obtained by comparison with non-derivatized acetaminophen standard curves.
compound,measurement,setting,value
CC(C)CCC[C@@H](C)[C@H]1CC[C@H]2[C@@H]3[C@@H](OC(=O)CCC(=O)O)C=C4C[C@@H](OC(=O)CCC(=O)O)CC[C@]4(C)[C@H]3CC[C@]12C [7β-OHC bishemisuccinate colamine salt],normalizing effects,[1],drive-enhancing (stimulating) activity as well as a tranquilizing activity
same,inhibition of proliferative phase growth of cancer cells,"cancer cells; clinical studies, low parenteral dosage",selectively inhibit the proliferative phase growth of cancer cells
same,side effects,cancer cells; in vivo,without substantial side effects
"CC(C)CCC[C@@H](C)[C@H]1CC[C@H]2[C@@H]3[C@@H](O)C=C4C[C@@H](O)CC[C@]4(C)[C@H]3CC[C@]12C [7β-hydroxycholesterol, 5-cholestene-3β,7β-diol]",tumor cell growth inhibition,K-562,tumor cell growth inhibition
same,side effects in treatment of cancer diseases,[2]; in vivo,free of side effects
same,treatment of cancer diseases,[2]; several phenotypes,successfully employed
same,effect on healthy cells,[3],not affecting healthy cells
same,elimination of cancer cells,[3]; substantially non-toxic dosage,effective at substantially non-toxic dosage and capable of eliminating cancer cells of representative phenotypes
"CC(=O)Nc1ccc(O[C@@H]2C=C[C@H](O[C@H]3O[C@H](CO)[C@@H](O)[C@H](O)[C@H]3O)[C@@H](CO)O2)cc1 [Example 9, p-Acetoamidophenyl 4-O-(α-D-glucopyranosyl)-2,3-dideoxy-α-D-erythro-hex-2-enopyranoside]",solubility,[4],60 mg/mL
"CC(=O)Nc1ccc(O[C@@H]2C=C[C@H](O[C@@H]3O[C@H](CO)[C@H](O)[C@H](O)[C@H]3O)[C@@H](CO)O2)cc1 [Example 10, p-Acetoamidophenyl 4-O-(β-D-galactopyranosyl)-2,3-dideoxy-O-D-erythro-hex-2-enopyranoside]",solubility,[4],55 mg/mL
"CC(=O)Nc1ccc(O)cc1 [acetaminophen, 4-acetamidophenol]",solubility,[4],7 mg/mL
